Test results from US10167262B2, “Herbicidal substituted 3-arylpyrazoles” (FMC CORPORATION, priority 2014, dated 2019).

Tests used:
Type in all cases: in vivo
[1] = test system: rice (Oryza sativa); test: Test B flooded paddy test, plant response rating 0-100; settings: Flood, 250 g ai/ha; scale 0 to 100 (0 no effect, 100 complete control); 13 to 15 days
In short: (§1)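 Pots were flooded to 3 cm above the soil surface at treatment, compound applied directly to the paddy water, and that depth held throughout. Plants were kept in a greenhouse for 13 to 15 days, then visually rated against untreated controls.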

[2] = test system: barnyardgrass (Echinochloa crus-galli); test: as above; settings: Flood, 250 g ai/ha; scale 0 to 100 (0 no effect, 100 complete control); 13 to 15 days
In short: as §1

[3] = test system: sedge, umbrella (small-flower umbrella sedge, Cyperus difformis); test: as above; settings: Flood, 250 g ai/ha; scale 0 to 100 (0 no effect, 100 complete control); 13 to 15 days
In short: as §1

[4] = test system: ducksalad (Heteranthera limosa); test: as above; settings: Flood, 250 g ai/ha; scale 0 to 100 (0 no effect, 100 complete control); 13 to 15 days
In short: as §1

[5] = test system: pigweed (Amaranthus retroflexus); test: Test A pre-/postemergence greenhouse herbicide test, visual injury rating 0-100
In short: (§2)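 Directed soil spray (pre) and foliar spray (post, 1–2 leaf) of solvent/surfactant-formulated compound; greenhouse ~10 d; visual injury 0–100 vs untreated controls.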

[6] = test system: wheat (Triticum aestivum); test: as above
In short: as §2

[7] = test system: velvetleaf (Abutilon theophrasti); test: as above
In short: as §2

[8] = test system: giant foxtail (Setaria faberii); test: as above
In short: as §2

[9] = test system: morningglory (Ipomoea spp.); test: as above
In short: as §2

[10] = test system: barnyardgrass (Echinochloa crus-galli); test: as above
In short: as §2

[11] = test system: corn (Zea mays); test: as above
In short: as §2

[12] = test system: large (Lg) crabgrass (Digitaria sanguinalis); test: as above
In short: as §2

O=C(c1ccccc1)c1cn(CC2CC2)nc1-c1cc(Cl)cc(Cl)c1 [Compound 41]
Plant response rating, Rice [1]: 0 | Plant response rating, Barnyardgrass [2]: 0 | Plant response rating, Sedge, Umbrella [3]: 30 | Plant response rating, Ducksalad [4]: 0 | Plant response rating (0 to 100 scale), Pigweed ([5]; Postemergence, 125 g ai/ha): 30 | Plant response rating (0 to 100 scale), Pigweed ([5]; Postemergence, 500 g ai/ha): 60 | Pigweed plant response rating (0 = no effect, 100 = complete control) ([5]; Preemergence, 125 g ai/ha): 0 | Plant response rating (0 to 100 scale), Pigweed ([5]; Preemergence, 500 g ai/ha): 60 | Plant response rating (0 to 100 scale), Wheat ([6]; Postemergence, 125 g ai/ha): 0 | Plant response rating (0 to 100 scale), Wheat ([6]; Postemergence, 500 g ai/ha): 0 | Wheat plant response rating (0 = no effect, 100 = complete control) ([6]; Preemergence, 125 g ai/ha): 0 | Plant response rating (0 to 100 scale), Wheat ([6]; Preemergence, 500 g ai/ha): 0 | Plant response rating (0 to 100 scale), Velvetleaf ([7]; Postemergence, 125 g ai/ha): 40 | Plant response rating (0 to 100 scale), Velvetleaf ([7]; Postemergence, 500 g ai/ha): 80 | Velvetleaf plant response rating (0 = no effect, 100 = complete control) ([7]; Preemergence, 125 g ai/ha): 0 | Plant response rating (0 to 100 scale), Velvetleaf ([7]; Preemergence, 500 g ai/ha): 60 | Plant response rating (0 to 100 scale), Foxtail, Giant ([8]; Postemergence, 125 g ai/ha): 0 | Plant response rating (0 to 100 scale), Foxtail, Giant ([8]; Postemergence, 500 g ai/ha): 0 | Foxtail, Giant plant response rating (0 = no effect, 100 = complete control) ([8]; Preemergence, 125 g ai/ha): 0 | Plant response rating (0 to 100 scale), Foxtail, Giant ([8]; Preemergence, 500 g ai/ha): 0 | Plant response rating (0 to 100 scale), Morningglory ([9]; Postemergence, 125 g ai/ha): 0 | Plant response rating (0 to 100 scale), Morningglory ([9]; Postemergence, 500 g ai/ha): 0 | Morningglory plant response rating (0 = no effect, 100 = complete control) ([9]; Preemergence, 125 g ai/ha): 0 | Plant response rating (0 to 100 scale), Morningglory ([9]; Preemergence, 500 g ai/ha): 0 | Plant response rating (0 to 100 scale), Barnyardgrass ([10]; Postemergence, 125 g ai/ha): 0 | Plant response rating (0 to 100 scale), Barnyardgrass ([10]; Postemergence, 500 g ai/ha): 0 | Barnyardgrass plant response rating (0 = no effect, 100 = complete control) ([10]; Preemergence, 125 g ai/ha): 0 | Plant response rating (0 to 100 scale), Barnyardgrass ([10]; Preemergence, 500 g ai/ha): 0 | Plant response rating (0 to 100 scale), Corn ([11]; Postemergence, 125 g ai/ha): 0 | Plant response rating (0 to 100 scale), Corn ([11]; Postemergence, 500 g ai/ha): 0 | Corn plant response rating (0 = no effect, 100 = complete control) ([11]; Preemergence, 125 g ai/ha): 0 | Plant response rating (0 to 100 scale), Corn ([11]; Preemergence, 500 g ai/ha): 0 | Plant response rating (0 to 100 scale), Crabgrass, Large ([12]; Postemergence, 125 g ai/ha): 0 | Plant response rating (0 to 100 scale), Crabgrass, Large ([12]; Postemergence, 500 g ai/ha): 0 | Crabgrass, Large plant response rating (0 = no effect, 100 = complete control) ([12]; Preemergence, 125 g ai/ha): 0 | Plant response rating (0 to 100 scale), Crabgrass, Large ([12]; Preemergence, 500 g ai/ha): 0

Fc1cc(Cl)cc(-c2n[nH]cc2C(=NN2CCCC2)c2ccccc2)c1 [Compound 42]
Plant response rating, Rice [1]: 0 | Plant response rating, Barnyardgrass [2]: 0 | Plant response rating, Sedge, Umbrella [3]: 0 | Plant response rating, Ducksalad [4]: 0 | Plant response rating (0 to 100 scale), Pigweed ([5]; Postemergence, 1000 g ai/ha): 100 | Plant response rating (0 to 100 scale), Pigweed ([5]; Preemergence, 1000 g ai/ha): 100 | Plant response rating (0 to 100 scale), Wheat ([6]; Postemergence, 1000 g ai/ha): 0 | Plant response rating (0 to 100 scale), Wheat ([6]; Preemergence, 1000 g ai/ha): 0 | Plant response rating (0 to 100 scale), Velvetleaf ([7]; Postemergence, 1000 g ai/ha): 100 | Plant response rating (0 to 100 scale), Velvetleaf ([7]; Preemergence, 1000 g ai/ha): 100 | Plant response rating (0 to 100 scale), Foxtail, Giant ([8]; Postemergence, 1000 g ai/ha): 0 | Plant response rating (0 to 100 scale), Foxtail, Giant ([8]; Preemergence, 1000 g ai/ha): 0 | Plant response rating (0 to 100 scale), Morningglory ([9]; Postemergence, 1000 g ai/ha): 0 | Plant response rating (0 to 100 scale), Morningglory ([9]; Preemergence, 1000 g ai/ha): 0 | Plant response rating (0 to 100 scale), Barnyardgrass ([10]; Postemergence, 1000 g ai/ha): 0 | Plant response rating (0 to 100 scale), Barnyardgrass ([10]; Preemergence, 1000 g ai/ha): 0 | Plant response rating (0 to 100 scale), Corn ([11]; Postemergence, 1000 g ai/ha): 0 | Plant response rating (0 to 100 scale), Corn ([11]; Preemergence, 1000 g ai/ha): 0 | Plant response rating (0 to 100 scale), Crabgrass, Large ([12]; Postemergence, 1000 g ai/ha): 0 | Plant response rating (0 to 100 scale), Crabgrass, Large ([12]; Preemergence, 1000 g ai/ha): 0

N#CCn1cc(C(=O)c2ccccc2)c(-c2cc(Cl)cc(Cl)c2)n1 [Compound 43]
Plant response rating, Rice [1]: 0 | Plant response rating, Barnyardgrass [2]: 0 | Plant response rating, Sedge, Umbrella [3]: 0 | Plant response rating, Ducksalad [4]: 0 | Plant response rating (0 to 100 scale), Pigweed ([5]; Postemergence, 125 g ai/ha): 50 | Plant response rating (0 to 100 scale), Pigweed ([5]; Postemergence, 500 g ai/ha): 80 | Pigweed plant response rating (0 = no effect, 100 = complete control) ([5]; Preemergence, 125 g ai/ha): 0 | Plant response rating (0 to 100 scale), Pigweed ([5]; Preemergence, 500 g ai/ha): 40 | Plant response rating (0 to 100 scale), Wheat ([6]; Postemergence, 125 g ai/ha): 0 | Plant response rating (0 to 100 scale), Wheat ([6]; Postemergence, 500 g ai/ha): 0 | Wheat plant response rating (0 = no effect, 100 = complete control) ([6]; Preemergence, 125 g ai/ha): 0 | Plant response rating (0 to 100 scale), Wheat ([6]; Preemergence, 500 g ai/ha): 0 | Plant response rating (0 to 100 scale), Velvetleaf ([7]; Postemergence, 125 g ai/ha): 20 | Plant response rating (0 to 100 scale), Velvetleaf ([7]; Postemergence, 500 g ai/ha): 80 | Velvetleaf plant response rating (0 = no effect, 100 = complete control) ([7]; Preemergence, 125 g ai/ha): 30 | Plant response rating (0 to 100 scale), Velvetleaf ([7]; Preemergence, 500 g ai/ha): 30 | Plant response rating (0 to 100 scale), Foxtail, Giant ([8]; Postemergence, 125 g ai/ha): 0 | Plant response rating (0 to 100 scale), Foxtail, Giant ([8]; Postemergence, 500 g ai/ha): 0 | Foxtail, Giant plant response rating (0 = no effect, 100 = complete control) ([8]; Preemergence, 125 g ai/ha): 0 | Plant response rating (0 to 100 scale), Foxtail, Giant ([8]; Preemergence, 500 g ai/ha): 0 | Morningglory plant response rating (0 = no effect, 100 = complete control) ([9]; Preemergence, 125 g ai/ha): 0 | Plant response rating (0 to 100 scale), Morningglory ([9]; Preemergence, 500 g ai/ha): 0 | Plant response rating (0 to 100 scale), Barnyardgrass ([10]; Postemergence, 125 g ai/ha): 0 | Plant response rating (0 to 100 scale), Barnyardgrass ([10]; Postemergence, 500 g ai/ha): 0 | Barnyardgrass plant response rating (0 = no effect, 100 = complete control) ([10]; Preemergence, 125 g ai/ha): 0 | Plant response rating (0 to 100 scale), Barnyardgrass ([10]; Preemergence, 500 g ai/ha): 0 | Plant response rating (0 to 100 scale), Corn ([11]; Postemergence, 125 g ai/ha): 0 | Plant response rating (0 to 100 scale), Corn ([11]; Postemergence, 500 g ai/ha): 0 | Corn plant response rating (0 = no effect, 100 = complete control) ([11]; Preemergence, 125 g ai/ha): 0 | Plant response rating (0 to 100 scale), Corn ([11]; Preemergence, 500 g ai/ha): 0 | Plant response rating (0 to 100 scale), Crabgrass, Large ([12]; Postemergence, 125 g ai/ha): 0 | Plant response rating (0 to 100 scale), Crabgrass, Large ([12]; Postemergence, 500 g ai/ha): 0 | Crabgrass, Large plant response rating (0 = no effect, 100 = complete control) ([12]; Preemergence, 125 g ai/ha): 0 | Plant response rating (0 to 100 scale), Crabgrass, Large ([12]; Preemergence, 500 g ai/ha): 0
